Where two headings read alike, the source gives them in different places.
What was measured:
[1] = tested on: Ba/F3 cells with the wildtype EGFR; assay: Ba/F3 proliferation assay (CellTiter-Glo viability), wildtype EGFR with EGF; format: cell-based, murine; conditions: Mus musculus, BaF3, Ba/F3 EGFR wt
Experimental: (§1) Ba/F3 Cell Model Generation and Proliferation Assays
(§2) Plasmids containing EGFR mutants were obtained from GeneScript. To generate EGFR-dependent […] were transduced with retroviruses containing vectors that harbor EGFR isoforms. Platinum-E cells (Cell Biolabs) were used for retrovirus packaging. Retrovirus was added to Ba/F3 cells. To ensure infection, 4 μg/mL polybrene was added and cells were spinfected. Infection efficiency was confirmed by measuring GFP-positive cells using a cell analyzer. Cells with an infection efficiency of 10% to 20% were further cultivated and puromycin selection with 1 μg/mL was initiated. As a control, parental Ba/F3 cells were used to show selection status. Selection was considered successful when parental Ba/F3 cells cultures died. To evaluate the transforming potential of EGFR mutations, the growth medium was no longer supplemented with IL-3. Ba/F3 cells harboring the empty vector were used as a control. A switch from IL-3 to EGF was performed for Ba/F3 cells with the wildtype EGFR known for its dependency on EGF ligand. Approximately ten days before conducting the experiments, puromycin was left out. For proliferation assays (data in table 13), Ba/F3 cells were seeded into 96-well plates at 5×10^3 cells/100 μL in growth media. Compounds were added by using a HP D3000 Digital Dispenser. All treatments were performed in technical triplicates. Treated cells were incubated for 72 h at 37° C. with 5% CO2. CellTiter-Glo® Luminescent Cell Viability Assay (Promega) was performed and chemoluminescence was measured by using the multilabel Plate Reader VICTOR X4. The raw data were imported into and analyzed with the Boehringer Ingelheim proprietary software MegaLab (curve fitting based on the program PRISM, GraphPad Inc.).

[2] = tested on: Ba/F3 cells EGFR-indep. + IL-3; assay: Ba/F3 proliferation assay (CellTiter-Glo viability), EGFR-independent cells with IL-3; format: cell-based, murine; conditions: Mus musculus, BaF3, Ba/F3 EGFR-independent + IL-3
Experimental: as §2

EGFR M+ NSCLC patients = conditions: cited from earlier work; for objective response rate: EGFR M+ NSCLC patients treated in 1st line
[3] = tested on: EGFR M+ T790M-positive NSCLC patients; conditions: 2nd line, cited from earlier work
[4] = target: EGFR (d746-750 T790M C797S) (Homo sapiens (Human), UniProt P00533, C797S/DEL746-750/T790M); assay: Biochemical EGFR inhibition assay (TR-FRET, poly-GT substrate), EGFR d746-750 T790M C797S; conditions: 100 μM ATP
Experimental: Biochemical EGFR Inhibition Assays
Initially, the inhibitory effect of compounds according to the invention is measured in biochemical assays which measure the phosphorylation activity of EGFR enzyme forms on poly-GT substrate in the presence of different concentrations of ATP (5 μM and 100 μM final assay concentration).
The following enzyme forms of EGFR are representative examples that can be used in these assays at the given concentrations:
For the chosen highest assay concentration of 100 μM, 150 nL of compound solution is transferred from a 10 mM DMSO compound stock solution. A series of eleven fivefold dilutions per compound is transferred to the assay plate, compound dilutions are tested in duplicates. DMSO is added as backfill to a total volume of 150 nL. The assay runs on a fully automated robotic system.
These biochemical EGFR enzyme form compound dose-response assays quantify the kinase activity via phosphorylation of a tagged poly-GT substrate. The results of the assay are provided as IC50 values.

[5] = target: EGFR (mutated) 695-1022, T790M, C797S, L858R (Homo sapiens (Human), UniProt P00533, C797S/L858R/T790M); assay: Biochemical EGFR inhibition assay (TR-FRET, poly-GT substrate), EGFR T790M C797S L858R
Method in brief: (§3)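 Phosphorylation of tagged poly-GT substrate by EGFR forms measured at 5 μM and 100 μM ATP (final). Top compound concentration 100 μM, eleven fivefold dilutions, in duplicate. Results given as IC50.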

EGFR wt = EGFR wt (Homo sapiens (Human), UniProt P00533); assay: Biochemical EGFR inhibition assay (TR-FRET, poly-GT substrate), EGFR wt
Method in brief: as §3

[6] = tested on: Ba/F3 cells driven by EGFR mutants; assay: Ba/F3 proliferation assay (CellTiter-Glo viability), EGFR mutant alleles; format: cell-based, murine; conditions: Mus musculus
Experimental: as §1, §2

[7] = target: EGFR del19 T790M C797S protein in Ba/F3 cells (Homo sapiens, UniProt P00533, C797S/DEL746-750/T790M); assay: pEGFR assay (AlphaScreen Surefire, EGFR Tyr1068 phosphorylation); format: cell-based
Method in brief: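 Transduced Ba/F3 cells, puromycin-selected and grown IL-3 independent, were treated with compound at 60.000 cells/well for 4 h at 37° C. Lysis followed for 20 min at room temperature, and Tyr1068 phospho-EGFR in lysate was detected after 2 h dark incubation. Results are IC50 values.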

[8] = read-out: LR_TM_CS (5 μM ATP) IC50, 5 μM ATP
[9] = read-out: LR_TM_CS (100 μM ATP) IC50, 100 μM ATP
[10] = read-out: wt (5 μM ATP) IC50, 5 μM ATP
[11] = read-out: wt (100 μM ATP) IC50, 100 μM ATP
[12] = BaF3, Ba/F3 EGFR L858R C797S, read-out: IC50 EGFR L858R C797S
[13] = BaF3, Ba/F3 EGFR L858R T790M C797S, read-out: IC50 EGFR L858R T790M C797S
[14] = BaF3, Ba/F3 EGFR L858R T790M, read-out: IC50 EGFR L858R T790M
[15] = BaF3, Ba/F3 EGFR L858R, read-out: IC50 EGFR L858R
[16] = BaF3, Ba/F3 EGFR del19, read-out: IC50 EGFR del19
[17] = BaF3, Ba/F3 EGFR del19 C797S, read-out: IC50 EGFR del19 C797S
[18] = BaF3, Ba/F3 EGFR del19 T790M C797S, read-out: IC50 EGFR del19 T790M C797S
[19] = BaF3, Ba/F3 EGFR del19 T790M, read-out: IC50 EGFR del19 T790M

EGFR (mutated) 695-1022, T790M, C797S, L858R, sequence (P00533 695-1022 T790M/C797S/L858R): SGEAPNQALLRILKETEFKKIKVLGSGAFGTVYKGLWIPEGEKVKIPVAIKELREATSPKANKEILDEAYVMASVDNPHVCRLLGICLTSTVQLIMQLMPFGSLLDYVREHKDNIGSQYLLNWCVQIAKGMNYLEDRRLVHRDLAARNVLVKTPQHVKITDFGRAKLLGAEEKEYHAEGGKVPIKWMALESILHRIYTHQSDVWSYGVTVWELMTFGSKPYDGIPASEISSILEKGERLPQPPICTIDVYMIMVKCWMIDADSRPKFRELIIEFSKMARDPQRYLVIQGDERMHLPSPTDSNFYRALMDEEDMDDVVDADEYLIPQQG
EGFR del19 T790M C797S protein in Ba/F3 cells, sequence (P00533 with tags, fused parts or gaps C797S/DEL746-750/T790M limits assumed): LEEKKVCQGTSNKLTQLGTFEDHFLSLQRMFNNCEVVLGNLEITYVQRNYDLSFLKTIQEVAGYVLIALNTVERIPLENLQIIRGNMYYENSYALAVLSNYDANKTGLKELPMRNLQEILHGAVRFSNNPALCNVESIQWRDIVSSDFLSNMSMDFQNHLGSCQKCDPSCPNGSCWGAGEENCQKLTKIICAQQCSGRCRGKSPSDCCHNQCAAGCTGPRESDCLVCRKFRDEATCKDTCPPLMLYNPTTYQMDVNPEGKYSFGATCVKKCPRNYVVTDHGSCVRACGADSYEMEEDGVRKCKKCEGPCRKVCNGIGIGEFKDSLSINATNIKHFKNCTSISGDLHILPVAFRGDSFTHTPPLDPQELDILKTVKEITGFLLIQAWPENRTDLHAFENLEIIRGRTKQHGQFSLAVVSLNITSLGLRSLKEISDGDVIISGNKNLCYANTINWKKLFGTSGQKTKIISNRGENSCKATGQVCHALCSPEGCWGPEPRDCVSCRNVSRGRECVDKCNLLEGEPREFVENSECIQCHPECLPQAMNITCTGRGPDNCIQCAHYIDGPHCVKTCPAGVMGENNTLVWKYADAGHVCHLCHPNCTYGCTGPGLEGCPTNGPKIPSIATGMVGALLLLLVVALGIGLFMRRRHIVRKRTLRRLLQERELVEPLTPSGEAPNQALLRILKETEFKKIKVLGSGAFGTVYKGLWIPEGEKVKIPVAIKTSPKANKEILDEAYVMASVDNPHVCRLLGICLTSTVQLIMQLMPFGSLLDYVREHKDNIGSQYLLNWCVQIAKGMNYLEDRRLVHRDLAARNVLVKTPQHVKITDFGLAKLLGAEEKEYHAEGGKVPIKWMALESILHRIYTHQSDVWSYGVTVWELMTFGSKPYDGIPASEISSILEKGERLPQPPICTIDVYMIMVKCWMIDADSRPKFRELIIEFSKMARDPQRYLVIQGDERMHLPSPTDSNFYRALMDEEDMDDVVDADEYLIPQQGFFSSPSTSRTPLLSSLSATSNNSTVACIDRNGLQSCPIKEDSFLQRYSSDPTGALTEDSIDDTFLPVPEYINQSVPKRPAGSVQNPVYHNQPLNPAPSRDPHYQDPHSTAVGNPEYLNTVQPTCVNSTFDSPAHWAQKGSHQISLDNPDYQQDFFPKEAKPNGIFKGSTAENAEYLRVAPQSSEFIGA
EGFR wt, sequence (P00533 25-1210): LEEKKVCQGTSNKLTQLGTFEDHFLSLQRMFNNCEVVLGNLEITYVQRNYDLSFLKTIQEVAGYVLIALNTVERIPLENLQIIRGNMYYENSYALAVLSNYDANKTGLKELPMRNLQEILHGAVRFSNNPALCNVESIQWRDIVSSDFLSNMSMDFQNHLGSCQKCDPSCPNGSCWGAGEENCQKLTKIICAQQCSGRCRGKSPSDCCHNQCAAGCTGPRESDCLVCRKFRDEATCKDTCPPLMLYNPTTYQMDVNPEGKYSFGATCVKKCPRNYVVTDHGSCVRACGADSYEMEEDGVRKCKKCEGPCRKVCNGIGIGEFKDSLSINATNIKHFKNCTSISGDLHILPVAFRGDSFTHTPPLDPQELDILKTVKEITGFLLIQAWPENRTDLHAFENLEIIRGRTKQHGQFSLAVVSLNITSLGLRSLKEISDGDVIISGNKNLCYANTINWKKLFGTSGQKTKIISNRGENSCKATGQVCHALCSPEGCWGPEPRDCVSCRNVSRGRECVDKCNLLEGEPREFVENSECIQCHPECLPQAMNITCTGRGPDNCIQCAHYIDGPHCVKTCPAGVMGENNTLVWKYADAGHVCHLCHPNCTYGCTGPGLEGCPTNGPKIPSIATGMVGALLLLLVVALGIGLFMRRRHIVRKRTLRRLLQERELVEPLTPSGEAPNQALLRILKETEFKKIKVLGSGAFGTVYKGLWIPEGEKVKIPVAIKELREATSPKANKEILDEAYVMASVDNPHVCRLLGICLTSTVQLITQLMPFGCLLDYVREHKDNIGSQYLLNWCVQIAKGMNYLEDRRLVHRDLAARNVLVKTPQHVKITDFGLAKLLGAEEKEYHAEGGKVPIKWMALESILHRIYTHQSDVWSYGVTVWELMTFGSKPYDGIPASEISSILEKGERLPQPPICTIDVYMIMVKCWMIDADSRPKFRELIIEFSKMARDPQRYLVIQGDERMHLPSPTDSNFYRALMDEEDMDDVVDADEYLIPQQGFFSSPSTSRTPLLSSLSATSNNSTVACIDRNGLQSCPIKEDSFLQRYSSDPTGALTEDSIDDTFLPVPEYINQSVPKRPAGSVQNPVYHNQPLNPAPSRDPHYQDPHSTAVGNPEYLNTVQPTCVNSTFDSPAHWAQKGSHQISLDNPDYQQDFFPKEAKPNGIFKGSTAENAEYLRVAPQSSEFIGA
EGFR (d746-750 T790M C797S), sequence (P00533 other isoform, or with tags, fused parts or gaps T790M/C797S/del 1-694/del 746-750 limits assumed): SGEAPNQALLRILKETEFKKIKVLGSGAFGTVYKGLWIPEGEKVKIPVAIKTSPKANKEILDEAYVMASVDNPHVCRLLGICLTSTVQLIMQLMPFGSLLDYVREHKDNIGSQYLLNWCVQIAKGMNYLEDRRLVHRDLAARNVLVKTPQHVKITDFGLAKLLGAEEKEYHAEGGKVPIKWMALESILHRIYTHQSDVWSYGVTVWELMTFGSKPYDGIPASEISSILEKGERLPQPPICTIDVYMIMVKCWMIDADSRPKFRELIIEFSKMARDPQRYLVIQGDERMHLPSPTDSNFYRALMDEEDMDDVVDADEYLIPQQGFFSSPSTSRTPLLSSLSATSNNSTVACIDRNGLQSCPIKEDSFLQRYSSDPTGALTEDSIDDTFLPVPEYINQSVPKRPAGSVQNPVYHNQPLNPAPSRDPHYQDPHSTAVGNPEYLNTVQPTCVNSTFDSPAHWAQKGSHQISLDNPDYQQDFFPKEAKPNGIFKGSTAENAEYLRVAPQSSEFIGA

## Cc1cc(C(=O)Nc2nc3cccc(Cl)c3n2[C@@H]2CCCCN(C(=O)/C=C/CN(C)C)C2)ccn1 [nazartinib, reference compound]
[1]
  IC50: 95.1 nM
[2]
  IC50: > 5000 nM

## C=CC(=O)Nc1cc(Nc2nccc(-c3cn(C)c4ccccc34)n2)c(OC)cc1N(C)CCN(C)C [osimertinib]
EGFR M+ NSCLC patients
  objective response rate: 60-85%
EGFR M+ NSCLC patients; previously untreated EGFR M+ NSCLC patients
  average duration until disease progression: 19 months
[3]; previously treated with earlier generation EGFR TKI
  patients responding to treatment: Approximately 70%
[3]
  average duration until disease progression: 10 months

## Cn1cc(-c2cc(C(=O)/N=c3\[nH]c4ccccc4n3C3CCCCC3)ccn2)cn1 [I-015]
[4]
  IC50: 2 nM
[5]; [8]
  IC50: 0.8 nM
[5]; [9]
  IC50: 10.5 nM
EGFR wt; [10]
  IC50: 125 nM
EGFR wt; [11]
  IC50: 114 nM
[6]; [12]
  IC50: 290 nM
[6]; [13]
  IC50: 284 nM
[6]; [14]
  IC50: 408 nM
[6]; [15]
  IC50: 274 nM
[6]; [16]
  IC50: 45.8 nM
[6]; [17]
  IC50: 21.1 nM
[6]; [18]
  IC50: 47 nM
[6]; [19]
  IC50: 169 nM
[1]
  IC50: 2220 nM
[7]
  IC50: 9 nM
[2]
  IC50: 6520 nM

## COc1cc2ncnc(Nc3ccc(F)c(Cl)c3)c2cc1NC(=O)/C=C/CN1CCCCC1 [dacomitinib, reference compound]
[1]
  IC50: 0.64 nM

## C#Cc1cccc(Nc2ncnc3cc(OCCOC)c(OCCOC)cc23)c1 [erlotinib]
EGFR M+ NSCLC patients
  objective response rate: 60-85%

## COc1ccccc1-c1cc(C(=O)/N=c2\[nH]c3cc(C)ccc3n2[C@H]2CC[C@@H](O)CC2)ccn1 [I-109]
[5]; [8]
  IC50: 0.5 nM
[5]; [9]
  IC50: 8.8 nM
EGFR wt; [10]
  IC50: 12.5 nM
EGFR wt; [11]
  IC50: 549 nM
[6]; [12]
  IC50: 51.5 nM
[6]; [13]
  IC50: 146 nM
[6]; [14]
  IC50: 177 nM
[6]; [15]
  IC50: 38.3 nM
[6]; [16]
  IC50: 9.1 nM
[6]; [17]
  IC50: 7 nM
[6]; [18]
  IC50: 23.5 nM
[6]; [19]
  IC50: 52.9 nM
[1]
  IC50: 728 nM
[7]
  IC50: 4 nM
[2]
  IC50: 8650 nM

## Cn1cc(-c2cc(C(=O)/N=c3\[nH]c4ccccc4n3[C@H]3CCC[C@H](O)C3)ccn2)cn1 [I-137]
[5]; [8]
  IC50: 0.8 nM
EGFR wt; [10]
  IC50: 108 nM
[6]; [12]
  IC50: 100 nM
[6]; [13]
  IC50: 137 nM
[6]; [14]
  IC50: 178 nM
[6]; [15]
  IC50: 91.6 nM
[6]; [16]
  IC50: 16.6 nM
[6]; [17]
  IC50: 8.7 nM
[6]; [18]
  IC50: 20.7 nM
[6]; [19]
  IC50: 72 nM
[1]
  IC50: 2060 nM
[7]
  IC50: 2 nM
[2]
  IC50: 9060 nM

## Cn1cc(-c2cc(C(=O)/N=c3\[nH]c4ccccc4n3[C@H]3CC[C@@H](O)CC3)ccn2)cn1 [I-048]
[5]; [8]
  IC50: 0.4 nM
[5]; [9]
  IC50: 5.7 nM
EGFR wt; [10]
  IC50: 32.3 nM
EGFR wt; [11]
  IC50: 1310 nM
[6]; [12]
  IC50: 52.1 nM
[6]; [13]
  IC50: 48.2 nM
[6]; [14]
  IC50: 79.4 nM
[6]; [15]
  IC50: 39.2 nM
[6]; [16]
  IC50: 10.9 nM
[6]; [17]
  IC50: 9.1 nM
[6]; [18]
  IC50: 12 nM
[6]; [19]
  IC50: 32.9 nM
[1]
  IC50: 540 nM
[7]
  IC50: 1 nM
[2]
  IC50: 7940 nM

## Cc1c(-c2cc(C(=O)/N=c3\[nH]c4ccccc4n3CC(C)(C)O)ccn2)cnn1C [I-017]
[4]
  IC50: 14.2 nM
[5]; [8]
  IC50: 3.9 nM
[5]; [9]
  IC50: 111 nM
EGFR wt; [10]
  IC50: 1880 nM
EGFR wt; [11]
  IC50: 9960 nM
[7]
  IC50: 7 nM

## CC(C)(O)Cn1/c(=N/C(=O)c2ccnc(-c3cnn4ccccc34)c2)[nH]c2ccccc21 [I-023]
[4]
  IC50: 7.7 nM
[5]; [9]
  IC50: 78.2 nM
EGFR wt; [11]
  IC50: > 100000 nM
[7]
  IC50: 7 nM

## Cn1cc(-c2cc(C(=O)/N=c3\[nH]c4ccccc4n3CCC(C)(C)O)ccn2)cn1 [I-037]
[4]
  IC50: 14.2 nM
[5]; [9]
  IC50: 171 nM
EGFR wt; [11]
  IC50: > 100000 nM
[7]
  IC50: 15 nM

## CN1CCC(c2ccc3c(c2)[nH]/c(=N\C(=O)c2ccnc(-c4cccnc4)c2)n3C2CCCC2)CC1 [I-011]
[4]
  IC50: 2.5 nM
[5]; [9]
  IC50: 27.7 nM
EGFR wt; [11]
  IC50: 7060 nM
[7]
  IC50: 77 nM
